The structures appear in SMILES notation.

The data set is described as follows: gradient 5% acetonitrile 3 min, to 50% in 2 min, to 85% in 15 min, held 3 min, 100 µL/min. As to conditions: column: Zorbax Extend-C18 2.1 x 50 mm; eluents: water / acetonitrile, 0.1% formic acid. The procedure, abridged: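 The system's dead and dwell volumes were 40 μL and 900 μL, with a Zorbax Extend-C18 column (2.1 × 50 mm, 1.8 μm) run at 100 μL/min in water and acetonitrile containing 0.1% formic acid each. Pure standards were analyzed in mixtures of ~100 molecules by HPLC–quadrupole time-of-flight mass spectrometry in positive and negative ionization mode. Retention time was assigned from computationally picked, manually inspected adduct peaks.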
Regarding `Clc1ccccc1-c1csc(Cc2nc(-c3ccc4c(c3)OCO4)no2)n1`, the RP-LC retention time is 1200 s.

`CCOC(=O)c1cc(S(=O)(=O)N2CCCC2C(=O)Nc2ccc(Br)c(C)c2)cn1C` (centres undefined) gave an RP-LC retention time of 1080 s.

In the case of `O=C(C1=NN(Cc2ccccc2F)c2ccccc2S1(=O)=O)N1CCCCC1`, the RP-LC retention time turned out to be 939 s.

`CCNc1cc(N2CCC(CCC(=O)O)CC2)ncn1` displayed an RP-LC retention time of 576 s.

In the case of `CN1C(=O)c2cccnc2Sc2cc(NC(=O)c3c(F)cccc3F)ccc21`, the RP-LC retention time is 754 s.

With `COC(=O)c1c(C)[nH]c(C(=O)N2CCC(CC(=O)NC(C)c3ccccc3)CC2)c1C` (centres undefined), the RP-LC retention time was 762 s.

In turn, `COCCn1c(=O)c2cc(C(=O)N3CCCC3)nn2c2ccccc21` gave an RP-LC retention time of 760 s.

The compound `COc1ccc(NC(=O)C2CC(=O)N(c3ccc4c(c3)CCN4C(=O)C3CC3)C2)cc1F` (centres undefined) had an RP-LC retention time of 770 s.

Turning to `COCCOCc1nc(C2CCCN2C(=O)c2cccs2)no1` (centres undefined), the RP-LC retention time worked out at 690 s.

As to `CCCCOc1nc2c(c(=O)n(C)c(=O)n2C)n1C`, the RP-LC retention time was 874 s.

`O=C1Nc2ccccc2C1(c1ccc(O)cc1)c1ccc(O)cc1` yielded an RP-LC retention time of 755 s.

Regarding `O=C(CN1C(=O)C2CCCCN2c2ccc(S(=O)(=O)N3CCCC3)cc21)NCC1CCCO1` (centres undefined), the RP-LC retention time worked out at 771 s.

Turning to `CCNc1nc(C)cc(N2CCN(S(=O)(=O)c3cccc(C(F)(F)F)c3)CC2)n1`, the RP-LC retention time stood at 754 s.

`Cc1ccc2c(Nc3ccccc3F)c(C(=O)N3CCCC3)cnc2n1` returned an RP-LC retention time of 555 s.

`O=C(Nc1ccc2c(c1)OCO2)C(=O)c1cccn1Cc1ccccc1`: the RP-LC retention time turned out to be 986 s.

Compound `COc1ccc(-c2c(C(=O)NCCCN3CCOCC3)nc3ccccn23)cc1` had an RP-LC retention time of 594 s.

In turn, `Cn1nc2ccc(S(=O)(=O)N3CCOCC3)cn2c1=O` gave an RP-LC retention time of 611 s.

The compound `COc1ccc(Cl)cc1NC(=O)Cn1ccc2c(=O)n(C)c(=O)n(C)c21` had an RP-LC retention time of 722 s.

On to `COc1ccc(-c2cc3c(=O)n(Cc4nc(-c5ccccc5)oc4C)ccn3n2)cc1`, for which the RP-LC retention time came to 936 s.

The compound `CN(C)S(=O)(=O)N1CC[C@@H]2C(=O)NCCCCCCN(Cc3ccncc3)[C@@H]2C1` returned an RP-LC retention time of 603 s.

Consider `CCOC(=O)c1c(C)[nH]c(CCC(=O)NCCN2CCCCC2)c1C`, for which the RP-LC retention time came to 607 s.

As for `COc1ccc2c(c1)CC(NC(=O)N1CCN(Cc3ccccc3)CC1)CO2` (centres undefined), the RP-LC retention time turned out to be 637 s.

In the case of `Cc1ccccc1OCC(=O)Nc1cc2c(cc1Oc1ccccc1)n(C)c(=O)c(=O)n2C`, the RP-LC retention time came out at 939 s.

In the case of `CCNC(=O)N1CC(Oc2ccc(-c3nc(-c4ccccc4)no3)cc2)C1`, the RP-LC retention time worked out at 945 s.

`COc1ccc(C2=NC3(CCN(C(=O)c4ccc(OC)cc4OC)CC3)NC2=O)cc1` had an RP-LC retention time of 776 s.

In the case of `CC1CCN(C(=O)c2cc(S(=O)(=O)N3CCC(C(=O)NC4CC4)CC3)cn2C)CC1`, the RP-LC retention time came to 681 s.

Compound `CCn1c(SC)nnc1-c1nn(C)c2c1CN(C(=O)c1ccc(F)c(F)c1)CC2` showed an RP-LC retention time of 804 s.

`COc1cc(OC)cc(-c2nc(Cn3c(C)nc4ccccc4c3=O)no2)c1` had an RP-LC retention time of 876 s.

Compound `CCCS(=O)(=O)N1CCc2c(c(CN(C(=O)c3ccccc3)c3ccccc3)nn2C)C1` showed an RP-LC retention time of 833 s.

Consider `Cc1oc(-c2[nH]ncc2C(=O)N(C)C)cc1S(=O)(=O)Nc1ccc(F)c(Cl)c1`, for which the RP-LC retention time stood at 740 s.

In turn, `COc1ccc(OC)c(NS(=O)(=O)c2ccc(-c3nnc(C4CCC4)o3)o2)c1` yielded an RP-LC retention time of 893 s.

`COc1ccccc1-c1nnc2sc(-c3cc(C)on3)nn12` had an RP-LC retention time of 823 s.

For the compound `COc1ccc(/C=C/c2nc(NCCCN(C)C)c3ccccc3n2)cc1`, the RP-LC retention time came to 639 s.

In turn, `Cc1oc2ncnc(N3CCOCC3)c2c1C(=O)N1CCN(c2ccccn2)CC1` yielded an RP-LC retention time of 567 s.

Turning to `COc1cccc(-c2noc(Cc3nnc(-c4cccc(F)c4)o3)n2)c1OC`, the RP-LC retention time came out at 934 s.

In turn, `CCc1noc(NC(C)=O)c1-c1ccc(C)c(S(=O)(=O)Nc2ccc(Br)cc2F)c1` gave an RP-LC retention time of 903 s.

With `COc1ccc(CC(=O)N2CCCC2c2cc(C)on2)cc1OC` (centres undefined), the RP-LC retention time stood at 716 s.

For the compound `O=C(NCc1cccc(F)c1)C1CC(=O)N(c2n[nH]c3cccc(F)c23)C1` (centres undefined), the RP-LC retention time worked out at 705 s.

Take `Cn1c(=O)c2c(ncn2CC(=O)N2CCC(c3nc(C4CCOCC4)no3)CC2)n(C)c1=O`: the RP-LC retention time was found to be 611 s.

As to `COc1ccc(C(O)CN2CCN(c3ccccc3)CC2)cc1OC` (centres undefined), the RP-LC retention time came to 607 s.

For the compound `COc1ccc(Cl)cc1C(=O)NCC1(O)CCOCC1`, the RP-LC retention time was 622 s.

Regarding `CCn1cc(-c2nc(C(=O)NCc3ccc(OC)cc3)cs2)c2cccnc21`, the RP-LC retention time came out at 958 s.

In the case of `COc1ccc(NC(=O)CCc2nc(-c3ccc(N4CCCC4)cc3)no2)cc1OC`, the RP-LC retention time is 936 s.

The compound `Cc1cc(C)c(S(=O)(=O)N2CCC(C(=O)NCc3csc(-c4ccccc4)n3)CC2)c(C)c1` returned an RP-LC retention time of 1050 s.

With `O=C(CSc1nccc(-c2ccc3c(c2)OCO3)n1)N1CCOCC1`, the RP-LC retention time amounted to 690 s.

Consider `CCN1C(=O)c2cc(C(=O)Nc3cccc(F)c3)nn2CC1(C)C(=O)NC1CCCC1` (centres undefined), for which the RP-LC retention time is 834 s.

`O=S(=O)(c1ccc(F)cc1)N1CCC(c2noc(C3CC3)n2)C1` (centres undefined): the RP-LC retention time turned out to be 885 s.

Turning to `CCc1cccc(NC(=O)Cn2c(=O)nc(N3CCCCC3)c3ccccc32)c1`, the RP-LC retention time is 754 s.

The compound `COc1cccc(CN2CCC(N3C[C@H](OC)[C@@H]3c3cccnc3)CC2)n1` returned an RP-LC retention time of 504 s.

The compound `O=C(NCc1ccncc1)C1CCCN(c2nnc3c(Cl)cccn23)C1` (centres undefined) gave an RP-LC retention time of 561 s.

For the compound `Cc1nc(-c2csc(S(=O)(=O)N3CCC(C(=O)NCc4ccc5c(c4)OCO5)CC3)c2)no1`, the RP-LC retention time worked out at 832 s.

Regarding `COc1ccccc1N1CCN(C(=O)C2CCN(c3cnc4nccnc4c3)CC2)CC1`, the RP-LC retention time stood at 673 s.

The compound `Cc1cc(C)cc(Oc2nccn3c(=O)n(CC(=O)Nc4ccccc4)nc23)c1` yielded an RP-LC retention time of 922 s.

As to `CC(=O)Nc1ccc(NC(=S)NC(=O)c2ccc(C(C)(C)C)cc2)cc1`, the RP-LC retention time was found to be 986 s.

On to `COc1ccc(C(=O)N2CCC(COc3ccc(C(=O)NC4CC4)cc3)CC2)c(C)c1`, for which the RP-LC retention time turned out to be 808 s.

Turning to `Cc1cc(=O)c2c(=O)[nH][nH]c2[nH]1`, the RP-LC retention time is 567 s.

As to `CCCn1cc(CCNC(=O)Cc2cccc(Cl)c2)c2cccnc21`, the RP-LC retention time came to 799 s.

Compound `Cc1cnc(-c2ccccc2)n1CCNS(=O)(=O)c1cccc(F)c1` yielded an RP-LC retention time of 633 s.

`Cc1ccc(S(=O)(=O)N2CCC(c3nc(C(=O)N4CCCC4)c(C)o3)CC2)cc1`: the RP-LC retention time is 733 s.

`Cc1nn2c(NCc3ccccn3)c3c(nc2c1-c1ccccc1)CCCC3`: the RP-LC retention time was 602 s.

Compound `Cc1cc(OC(C)C(=O)N[C@@H](C)C(=O)O)c2c3c(c(=O)oc2c1)CCCC3` (some centres undefined) had an RP-LC retention time of 767 s.

`Cc1oc2ccn(Cc3ccccc3F)c(=O)c2c1C(=O)NCc1cccc(F)c1`: the RP-LC retention time amounted to 726 s.

`COc1ccc(CN2CN=C(Nc3nc(C)c4cc(OC)ccc4n3)NC2)cc1` had an RP-LC retention time of 748 s.

The compound `O=C(Nc1ccc(Br)cc1F)C1CCCN(C(=O)c2cccc(C(F)(F)F)c2)C1` (centres undefined) registered an RP-LC retention time of 1060 s.

Turning to `CCNc1cc(N2CCCC(CCC(=O)NC(C)c3cccs3)C2)ncn1` (centres undefined), the RP-LC retention time turned out to be 661 s.

Take `CC(C)Cn1cc(CCNS(=O)(=O)c2ccccc2Cl)c2cccnc21`: the RP-LC retention time is 922 s.

Turning to `Cc1cc(C(=O)NCCCc2ccccc2)c2c(=O)n(C)c(=O)n(C)c2n1`, the RP-LC retention time turned out to be 750 s.

`COc1ccccc1C(=O)Nc1nc(-c2ccccc2)cs1` returned an RP-LC retention time of 1110 s.

The compound `CCc1ccc(-n2c(CN3CCN(C(=O)NC(C)(C)C)CC3)nc3cccnc32)cc1` yielded an RP-LC retention time of 687 s.

In turn, `Fc1cccc(CSc2ccc(-n3ccnc3)nn2)c1` showed an RP-LC retention time of 604 s.

On to `Cc1ccc(NS(=O)(=O)c2ccc3c(c2)C(=O)N(C)c2ncccc2O3)cc1`, for which the RP-LC retention time amounted to 914 s.

In the case of `Cc1cccc(N2C=C(C(=O)N3CCOCC3)S(=O)(=O)c3ccc(F)cc32)c1`, the RP-LC retention time came to 793 s.

`Cc1ccnc(N2CCC(C(=O)NC3CCCC3)CC2)n1`: the RP-LC retention time is 628 s.

In turn, `CC(C)(C)C(O)CCNC(=O)c1ccc(C(F)(F)F)cc1` (centres undefined) returned an RP-LC retention time of 813 s.

The compound `Cc1cc(Cl)ccc1OCc1nc(-c2ccc(NS(=O)(=O)c3cccs3)cc2)no1` registered an RP-LC retention time of 1180 s.

The compound `CCOC(=O)c1c(S(=O)(=O)N2CCC(C(=O)Nc3cccc(C)c3)CC2)c(C)n(C)c1C` registered an RP-LC retention time of 875 s.

For the compound `CCCCOc1ccc(C(=O)Nc2ccc(-c3nc(C)no3)cc2)cc1`, the RP-LC retention time is 1070 s.

Take `O=C(Nc1nc2ccccc2s1)c1ccc(S(=O)(=O)N2CCc3ccccc32)cc1`: the RP-LC retention time amounted to 1040 s.

Compound `CCc1nnc(-c2ccc(S(=O)(=O)N3CCN(CC(C)C)CC3)o2)o1` yielded an RP-LC retention time of 612 s.
